Measured values reported in patent US12171229B2, “Heteroaryl-triazole and heteroaryl-tetrazole compounds as pesticides” (BAYER AKTIENGESELLSCHAFT, priority 2018, dated 2024).

What was measured:
Format in all cases: in vivo
[1] = tested on: Boophilus microplus; test: Boophilus microplus injection test; conditions: 20 μg/animal injected into the abdomen, adult engorged female ticks, egg deposition after 7 days; for pest or weed control at 0.02 mg: Rhipicephalus microplus, 168 h, read-out: efficacy (infertile eggs)
Protocol: Boophilus Microplus—Injection Test Solvent: dimethyl sulfoxide To produce a suitable preparation of active compound, 10 mg of active compound are dissolved in 0.5 ml solvent, and the concentrate is diluted with solvent to the desired concentration. Five adult engorged female ticks (Boophilus microplus) are injected with 1 μl compound solution into the abdomen. The ticks are transferred into replica plates and incubated in a climate chamber. After 7 days egg deposition of fertile eggs is monitored. Eggs where fertility is not visible are stored in a climate chamber till hatching after about 42 days. An efficacy of 100% means all eggs are infertile; 0% means all eggs are fertile.

[2] = tested on: Diabrotica balteata; test: Diabrotica balteata spray test; conditions: after 7 days, larvae on wheat seeds; for pest or weed control at 160 µg/disc, 500 g/ha / pest or weed control at 80 µg/disc, 250 g/ha: Diabrotica balteata, in Triticum aestivum, 168 h, read-out: efficacy (seedlings grown up); for pest or weed control at 80 µg/disc, 250 g/ha: 80 μg/well (=250 g/ha)
Protocol: Diabrotica balteata—Spray Test [table] To produce a suitable preparation of active compound, 1 part by weight of active compound is mixed with the stated amount of solvent, and the concentrate is diluted with water, containing an emulsifier concentration of 1000 ppm, to the desired concentration. Further test concentrations are prepared by dilution with emulsifier containing water. Soaked wheat seeds (Triticum aestivum) are placed in a multiple well plate filled with agar and some water and are incubated for 1 day to germinate (5 seeds per well). The germinated wheat seeds are sprayed with a test solution containing the desired concentration of the active ingredient. Afterwards each unit is infected with 10-20 larvae of the banded cucumber beetle (Diabrotica balteata). After 7 days efficacy in % is determined. 100% means all the seedlings have grown up like in the untreated, uninfected control; 0% means none of the seedlings have grown.

[3] = tested on: Ctenocephalides felis; test: Ctenocephalides felis oral test; conditions: 48 h, 100 ppm in cattle blood, after 2 days, adult unfed cat fleas
Protocol: Ctenocephalides Felis—Oral Test
Solvent: dimethyl sulfoxide
To produce a suitable preparation of active compound, 10 mg of active compound are dissolved in 0.5 ml solvent, and the concentrate is diluted with cattle blood to the desired concentration.
Approximately 20 adult unfed cat fleas (Ctenocephalides felis) are placed in flea chambers. The blood chamber, sealed with parafilm on the bottom, are filled with cattle blood supplied with compound solution and placed on the gauze covered top of the flea chamber, so that the fleas are able to suck the blood. The blood chamber is heated to 37° C. whereas the flea chamber is kept at room temperature.
After 2 days mortality in % is determined. 100% means all the fleas have been killed; 0% means none of the fleas have been killed.

[4] = tested on: Spodoptera frugiperda; test: Spodoptera frugiperda spray test; conditions: 168 h, after 7 days, larvae on maize leaf sections
Protocol: Spodoptera frugiperda—Spray Test
(§1) To produce a suitable preparation of active compound, 1 part by weight of active compound is mixed with the stated amount of solvents and is diluted with water, containing an emulsifier concentration of 1000 ppm, to the desired concentration. Further test concentrations are prepared by dilution with emulsifier containing water.
Maize (Zea mays) leaf sections are sprayed with a preparation of the active ingredient of the desired concentration. Once dry, the leaf sections are infested with fall armyworm larvae (Spodoptera frugiperda).
After 7 days mortality in % is determined. 100% means all caterpillars have been killed and 0% means none of the caterpillars have been killed.

[5] = tested on: Nezara viridula; test: Nezara viridula spray test; conditions: 96 h, after 4 days, larvae on barley plants
Protocol: Nezara viridula—Spray Test
as §1, with “solvent,” for “solvents”, “and the concentrate” for “and”
Barley plants (Hordeum vulgare) infested with larvae of the southern green stink bug (Nezara viridula) are sprayed with a test solution containing the desired concentration of the active ingredient.
After 4 days mortality in % is determined. 100% means all the stink bugs have been killed: 0% means none of the stink bugs have been killed.

SMILES | pest or weed control at 160 µg/disc, 500 g/ha ([2]; 160 μg/well (=500 g/ha)) [%] | mortality at 100 ppm [3] [%] | pest or weed control at 0.02 mg [1] [%] | pest or weed control at 80 µg/disc, 250 g/ha [2] [%] | further results
C[C@H](NC(=O)c1cc(Cl)cc(C(F)(F)F)c1)c1ncnn1C1CCS(=O)(=O)C1 (single isomer, unassigned) [Example I-025] | – | – | – | – | efficacy (infertile eggs) [1]: 100%; efficacy (seedlings grown up) ([2]; 160 μg/well (=500 g/ha)): 80%
CC(c1ncnn1-c1cnc2ccccc2n1)N(CC1CC1)C(=O)c1cc(Cl)cc(C(F)(F)F)c1 (stereo not shown) [Example I-004] | 100 | – | – | – | –
C[C@H](NC(=O)c1cc(Cl)cc(C(F)(F)F)c1)c1ncnn1-c1ccc(OC(F)(F)F)cn1 [Example I-016] | 100 | 100 | 100 | 100 | mortality at 100 g/ha [4]: 100%; mortality at 500 g/ha [4]: 100%
C[C@H](NC(=O)c1cc(Cl)cc(C(F)(F)F)c1)c1ncnn1-c1nnc(C(F)(F)F)s1 [Example I-017] | – | – | 90 | – | –
C[C@H](NC(=O)c1cc(Cl)cc(C(F)(F)F)c1)c1ncnn1-c1nc(C(F)F)c(Cl)s1 [Example I-022] | 100 | – | 100 | 100 | mortality at 500 g/ha [4]: 83%
C[C@H](NC(=O)c1cc(Cl)cc(C(F)(F)F)c1)c1ncnn1-c1nnc(-c2ccc(F)cc2)s1 [Example I-023] | – | – | – | – | mortality at 100 g/ha ([5]; 100 g/ha): 100%
C[C@H](NC(=O)c1cc(Cl)cc(C(F)(F)F)c1)c1ncnn1-c1ccc(OC(F)F)cn1 [Example I-029] | 100 | – | – | 100 | mortality at 500 g/ha ([5]; 500 g/ha): 100%; mortality at 100 g/ha [4]: 100%; mortality at 500 g/ha [4]: 100%
COC(=O)c1ccc(-n2ncnc2[C@H](C)NC(=O)c2cc(Cl)cc(C(F)(F)F)c2)nc1 [Example I-031] | 100 | – | 100 | – | –
C[C@H](NC(=O)c1cc(Cl)cc(C(F)(F)F)c1)c1ncnn1-c1cn(C)nc1C(F)F [Example I-032] | 100 | 100 | 100 | 100 | –
C[C@H](NC(=O)c1cc(Cl)cc(C(F)(F)F)c1)c1ncnn1-c1nc(-c2ccccc2F)cs1 [Example I-043] | 100 | – | – | – | –
C[C@H](NC(=O)c1cc(Cl)cc(C(F)(F)F)c1)c1ncnn1-c1cn(C)nc1C(F)(F)F [Example I-044] | 80 | 100 | 100 | 100 | –
C[C@H](NC(=O)c1cc(Cl)cc(C(F)(F)F)c1)c1ncnn1-c1cccc(C#N)n1 [Example I-055] | – | – | 100 | – | –
C[C@H](NC(=O)c1cc(Cl)cc(C(F)(F)F)c1)c1ncnn1-c1nc2ccccc2o1 [Example I-057] | 80 | 90 | 80 | 100 | –
C[C@H](NC(=O)c1cc(F)cc(C(F)(F)F)c1)c1ncnn1-c1nc2ccccc2o1 [Example I-058] | – | 100 | 100 | – | –
C[C@H](NC(=O)c1cc(Cl)cc(C(F)(F)F)c1)c1ncnn1-c1cccc(OCC(F)(F)F)n1 [Example I-059] | 100 | – | – | – | –
C[C@H](NC(=O)c1cc(Cl)cc(C(F)(F)F)c1)c1ncnn1-c1ccc(OCC(F)(F)C(F)(F)F)cn1 [Example I-060] | – | 100 | – | 80 | mortality at 100 g/ha [4]: 100%; mortality at 500 g/ha [4]: 100%
